A short description of data set [1]: Solubility in water.
For data set [2], the system named is N87 cells. The data set can be described thus: N87 proliferation measured by tritiated-thymidine incorporation. The data set is classed as cell-based. How it is done: N87 cells were exposed to the 17-demethoxy-17-aminoderivative of geldanamycin indicated in Table 1 below, and the concentration at which the proliferation of the N87 cells was inhibited by 50% was determined in nanomolar units.

For data set [3], the system named is HuT102 cells. Briefly: Internalization of radiolabeled antibody by HuT102 cells. It is filed as cell-based. The conditions noted are these: cells washed with dilute acid. The method, then:
This example employs three antibodies, e21, AE1 (from Landolfi, Protein Design Labs, California), and anti-Tac (i.e., Zenapax from Hoffman-LaRoche, Inc., Nutley, N.J.). The antibodies e21 and AE1 bind Her2 with high affinity, and anti-Tac binds CD25 with high affinity. All three antibodies were radiolabeled and incubated with cells expressing the respective ligands on their cell surfaces (N87 cells for e21 and AE1 and HuT102 cells for anti-Tac). Both N87 cells and HuT102 cells are cancer cells that are known to be sensitive to the effects of geldanamycin. (HuT102 cells are cultured cells from an ATL patient available from the inventor's laboratories.) The cells were washed with dilute acid to remove unincorporated radiolabel, and the amount of radiolabel remaining in the cells was measured as an indication of the amount of antibody internalized.

[4] abbreviates: tritiated-thymidine incorporation, read-out: concentration that inhibited 50% of the N87 proliferation.

From patent publication US7026350B2, “Water-soluble drugs and methods for their production” (The United States of America as represented by the …, priority 1998, dated 2006) come the findings set out here.

Like-named read-outs stand apart in the source and are kept apart here.

In the case of “17-cys-GMB-aminopropylaminogeldanamycin [compound 4]”, the solubility in water result in data set [1] is reported as “water-soluble”. In the case of `COC1C=CC=C(C)C(=O)NC2=CC(=O)C(NCCCN)=C(CC(C)CC(OC)C(O)C(C)C=C(C)C1OC(N)=O)C2=O` (centres unmarked) [17-aminopropylamino-geldanamycin, 17-aminopropylaminogeldanamycin], the IC50 in data set [2] (setting [4]) was 180 nM. Consider `COC1=C2C[C@@H](C)C[C@H](OC)[C@H](O)[C@@H](C)/C=C(\C)[C@H](OC(N)=O)[C@@H](OC)/C=C\C=C(/C)C(=O)NC(=CC1=O)C2=O` [geldanamycin], for which the IC50 in data set [2] (Table 1, read-out: IC50 (nM), proliferation of N87 cells inhibited by 50%) worked out at 8.4 nM; in data set [2] (setting [4]) it was 8 nM.

B1: anti-Tac: anti-Tac (i.e., Zenapax from Hoffman-LaRoche), binds CD25 with high affinity (antibody, chains of the INN, looked up, V domains shown)
VH: QVQLVQSGAEVKKPGSSVKVSCKASGYTFTSYRMHWVRQAPGQGLEWIGYINPSTGYTEYNQKFKDKATITADESTNTAYMELSSLRSEDTAVYYCARGGGVFDYWGQGTLVTVSS
VL: DIQMTQSPSTLSASVGDRVTITCSASSSISYMHWYQQKPGKAPKLLIYTTSNLASGVPARFSGSGSGTEFTLTISSLQPDDFATYYCHQRSTYPLTFGQGTKVEVK
On to B1, for which the “radiolabel taken up by HuT102 cells (antibody internalized)” value in data set [3] is on record as “no significant quantity”.
